Measured values from US9738634B2, “Heterocyclic amide compound and herbicide” (SYNGENTA PARTICIPATIONS AG, priority 2013, dated 2017).

Legend:
Assay type in all cases: in vivo
Details in all cases: treatment dosage 320 g/ha
barnyard grass [1] = experiment: Test Example 1: weedkilling efficacy, preemergent weed treatment in the submerged state; A: barnyard grass
In short: (§1)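 Pots of alluvial soil flooded 4 cm deep, sown with barnyard grass, bulrush and oval-leafed pondweed and transplanted with 2.5-leaf rice. Emulsified compound applied to the water surface on sowing day at stated g/ha; greenhouse 25–30 °C, effects assessed 3 weeks after treatment.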

bulrush [2] = experiment: Test Example 1: weedkilling efficacy, preemergent weed treatment in the submerged state; B: bulrush
In short: as §1

oval-leafed pondweed [3] = experiment: Test Example 1: weedkilling efficacy, preemergent weed treatment in the submerged state; C: oval-leafed pondweed
In short: as §1

transplanted rice = experiment: Test Example 1: preemergent weed treatment in the submerged state, effect on crop; a: transplanted rice
In short: as §1

barnyard grass [4] = experiment: Test Example 2: weedkilling efficacy, growth period weed treatment in the submerged state; A: barnyard grass
In short: (§2)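 Barnyard grass, bulrush and oval-leafed pondweed sown in alluvial soil under 4 cm flooding, greenhouse 25 to 30° C. At 1-2 leaf stage, water-diluted emulsion applied to the water surface at stated g/ha dosages; effects scored 3 weeks later.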

bulrush [5] = experiment: Test Example 2: weedkilling efficacy, growth period weed treatment in the submerged state; B: bulrush
In short: as §2

oval-leafed pondweed [6] = experiment: Test Example 2: weedkilling efficacy, growth period weed treatment in the submerged state; C: oval-leafed pondweed
In short: as §2

crabgrass [7] = experiment: Test Example 3: weedkilling efficacy through soil treatment; D: crabgrass
In short: (§3)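 Crop and weed responses were judged three weeks after a uniform surface spray of the water-diluted emulsion at the given g/ha rate. Seeds sat beneath about 1.5 cm of sterilized diluvial soil, and boxes stood in a greenhouse at 25 to 30° C.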

green foxtail [8] = experiment: Test Example 3: weedkilling efficacy through soil treatment; E: green foxtail
In short: as §3

barnyard grass [9] = experiment: Test Example 3: weedkilling efficacy through soil treatment; F: barnyard grass
In short: as §3

wild oat [10] = experiment: Test Example 3: weedkilling efficacy through soil treatment; G: wild oat
In short: as §3

black-grass [11] = experiment: Test Example 3: weedkilling efficacy through soil treatment; H: black-grass
In short: as §3

Italian ryegrass [12] = experiment: Test Example 3: weedkilling efficacy through soil treatment; I: Italian ryegrass
In short: as §3

common wind-grass [13] = experiment: Test Example 3: weedkilling efficacy through soil treatment; J: common wind-grass
In short: as §3

Indian mallow [14] = experiment: Test Example 3: weedkilling efficacy through soil treatment; K: Indian mallow
In short: as §3

redroot pigweed [15] = experiment: Test Example 3: weedkilling efficacy through soil treatment; L: redroot pigweed
In short: as §3

chickweed [16] = experiment: Test Example 3: weedkilling efficacy through soil treatment; N: chickweed
In short: as §3

catchweed [17] = experiment: Test Example 3: weedkilling efficacy through soil treatment; O: catchweed
In short: as §3

birds-eye speedwell [18] = experiment: Test Example 3: weedkilling efficacy through soil treatment; p: birds-eye speedwell
In short: as §3

directly sown rice [19] = experiment: Test Example 3: soil treatment, effect on crop; b: directly sown rice
In short: as §3

corn [20] = experiment: Test Example 3: soil treatment, effect on crop; c: corn
In short: as §3

soybean [21] = experiment: Test Example 3: soil treatment, effect on crop; d: soybean
In short: as §3

wheat [22] = experiment: Test Example 3: soil treatment, effect on crop; e: wheat
In short: as §3

beet [23] = experiment: Test Example 3: soil treatment, effect on crop; f: beet
In short: as §3

rapeseed [24] = experiment: Test Example 3: soil treatment, effect on crop; g: rapeseed
In short: as §3

crabgrass [25] = experiment: Test Example 4: weedkilling efficacy by foliar treatment; D: crabgrass
In short: (§4)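 Seeds are spot-sown into sterilized diluvial soil and covered with about 1.5 cm of soil. After 14 days' greenhouse growth at 25 to 30° C, plants are sprayed on stems and leaves with diluted emulsion at the stated g/ha rate, then scored at 3 weeks.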

green foxtail [26] = experiment: Test Example 4: weedkilling efficacy by foliar treatment; E: green foxtail
In short: as §4

barnyard grass [27] = experiment: Test Example 4: weedkilling efficacy by foliar treatment; F: barnyard grass
In short: as §4

wild oat [28] = experiment: Test Example 4: weedkilling efficacy by foliar treatment; G: wild oat
In short: as §4

black-grass [29] = experiment: Test Example 4: weedkilling efficacy by foliar treatment; H: black-grass
In short: as §4

Italian ryegrass [30] = experiment: Test Example 4: weedkilling efficacy by foliar treatment; I: Italian ryegrass
In short: as §4

common wind-grass [31] = experiment: Test Example 4: weedkilling efficacy by foliar treatment; J: common wind-grass
In short: as §4

Indian mallow [32] = experiment: Test Example 4: weedkilling efficacy by foliar treatment; K: Indian mallow
In short: as §4

redroot pigweed [33] = experiment: Test Example 4: weedkilling efficacy by foliar treatment; L: redroot pigweed
In short: as §4

fig-leafed goosefoot = experiment: Test Example 4: weedkilling efficacy by foliar treatment; M: fig-leafed goosefoot
In short: as §4

chickweed [34] = experiment: Test Example 4: weedkilling efficacy by foliar treatment; N: chickweed
In short: as §4

catchweed [35] = experiment: Test Example 4: weedkilling efficacy by foliar treatment; O: catchweed
In short: as §4

birds-eye speedwell [36] = experiment: Test Example 4: weedkilling efficacy by foliar treatment; p: birds-eye speedwell
In short: as §4

directly sown rice [37] = experiment: Test Example 4: foliar treatment, effect on crop; b: directly sown rice
In short: as §4

corn [38] = experiment: Test Example 4: foliar treatment, effect on crop; c: corn
In short: as §4

soybean [39] = experiment: Test Example 4: foliar treatment, effect on crop; d: soybean
In short: as §4

wheat [40] = experiment: Test Example 4: foliar treatment, effect on crop; e: wheat
In short: as §4

beet [41] = experiment: Test Example 4: foliar treatment, effect on crop; f: beet
In short: as §4

rapeseed [42] = experiment: Test Example 4: foliar treatment, effect on crop; g: rapeseed
In short: as §4

CC1=C(c2ccccc2)C(=O)N(C(C)(C)C(=O)Nc2cc(OC(F)F)ccn2)CO1 [B-2-64]
A (barnyard grass) weedkilling efficacy grade (barnyard grass [1]): 5 (weed kill ratio 90% or more, (practically complete withering))
B (bulrush) weedkilling efficacy grade (bulrush [2]): 5 (weed kill ratio 90% or more, (practically complete withering))
C (oval-leafed pondweed) weedkilling efficacy grade (oval-leafed pondweed [3]): 5 (weed kill ratio 90% or more, (practically complete withering))
a (transplanted rice) effect on crop grade (transplanted rice): 4 (weed kill ratio 70% or more, less than 90%)
A (barnyard grass) weedkilling efficacy grade (barnyard grass [4]): 5 (weed kill ratio 90% or more, (practically complete withering))
B (bulrush) weedkilling efficacy grade (bulrush [5]): 5 (weed kill ratio 90% or more, (practically complete withering))
C (oval-leafed pondweed) weedkilling efficacy grade (oval-leafed pondweed [6]): 5 (weed kill ratio 90% or more, (practically complete withering))
D (crabgrass) weedkilling efficacy grade (crabgrass [7]): 5 (weed kill ratio 90% or more, (practically complete withering))
E (green foxtail) weedkilling efficacy grade (green foxtail [8]): 5 (weed kill ratio 90% or more, (practically complete withering))
F (barnyard grass) weedkilling efficacy grade (barnyard grass [9]): 5 (weed kill ratio 90% or more, (practically complete withering))
G (wild oat) weedkilling efficacy grade (wild oat [10]): 3 (weed kill ratio 40% or more, less than 70%)
H (black-grass) weedkilling efficacy grade (black-grass [11]): 5 (weed kill ratio 90% or more, (practically complete withering))
I (Italian ryegrass) weedkilling efficacy grade (Italian ryegrass [12]): 5 (weed kill ratio 90% or more, (practically complete withering))
J (common wind-grass) weedkilling efficacy grade (common wind-grass [13]): 5 (weed kill ratio 90% or more, (practically complete withering))
K (Indian mallow) weedkilling efficacy grade (Indian mallow [14]): 3 (weed kill ratio 40% or more, less than 70%)
L (redroot pigweed) weedkilling efficacy grade (redroot pigweed [15]): 4 (weed kill ratio 70% or more, less than 90%)
N (chickweed) weedkilling efficacy grade (chickweed [16]): 4 (weed kill ratio 70% or more, less than 90%)
O (catchweed) weedkilling efficacy grade (catchweed [17]): 0 (weed kill ratio 5% or less (practically no effect))
P (birds-eye speedwell) weedkilling efficacy grade (birds-eye speedwell [18]): 5 (weed kill ratio 90% or more, (practically complete withering))
b (directly sown rice) effect on crop grade (directly sown rice [19]): 4 (weed kill ratio 70% or more, less than 90%)
c (corn) effect on crop grade (corn [20]): 1 (weed kill ratio 5% or more, less than 20%)
d (soybean) effect on crop grade (soybean [21]): 0 (weed kill ratio 5% or less (practically no effect))
e (wheat) effect on crop grade (wheat [22]): 0 (weed kill ratio 5% or less (practically no effect))
f (beet) effect on crop grade (beet [23]): 4 (weed kill ratio 70% or more, less than 90%)
g (rapeseed) effect on crop grade (rapeseed [24]): 3 (weed kill ratio 40% or more, less than 70%)
D (crabgrass) weedkilling efficacy grade (crabgrass [25]): 5 (weed kill ratio 90% or more, (practically complete withering))
E (green foxtail) weedkilling efficacy grade (green foxtail [26]): 5 (weed kill ratio 90% or more, (practically complete withering))
F (barnyard grass) weedkilling efficacy grade (barnyard grass [27]): 5 (weed kill ratio 90% or more, (practically complete withering))
G (wild oat) weedkilling efficacy grade (wild oat [28]): 4 (weed kill ratio 70% or more, less than 90%)
H (black-grass) weedkilling efficacy grade (black-grass [29]): 5 (weed kill ratio 90% or more, (practically complete withering))
I (Italian ryegrass) weedkilling efficacy grade (Italian ryegrass [30]): 5 (weed kill ratio 90% or more, (practically complete withering))
J (common wind-grass) weedkilling efficacy grade (common wind-grass [31]): 5 (weed kill ratio 90% or more, (practically complete withering))
K (Indian mallow) weedkilling efficacy grade (Indian mallow [32]): 4 (weed kill ratio 70% or more, less than 90%)
L (redroot pigweed) weedkilling efficacy grade (redroot pigweed [33]): 4 (weed kill ratio 70% or more, less than 90%)
M (fig-leafed goosefoot) weedkilling efficacy grade (fig-leafed goosefoot): 4 (weed kill ratio 70% or more, less than 90%)
N (chickweed) weedkilling efficacy grade (chickweed [34]): 4 (weed kill ratio 70% or more, less than 90%)
O (catchweed) weedkilling efficacy grade (catchweed [35]): 4 (weed kill ratio 70% or more, less than 90%)
P (birds-eye speedwell) weedkilling efficacy grade (birds-eye speedwell [36]): 4 (weed kill ratio 70% or more, less than 90%)
b (directly sown rice) effect on crop grade (directly sown rice [37]): 4 (weed kill ratio 70% or more, less than 90%)
c (corn) effect on crop grade (corn [38]): 0 (weed kill ratio 5% or less (practically no effect))
d (soybean) effect on crop grade (soybean [39]): 4 (weed kill ratio 70% or more, less than 90%)
e (wheat) effect on crop grade (wheat [40]): 0 (weed kill ratio 5% or less (practically no effect))
f (beet) effect on crop grade (beet [41]): 4 (weed kill ratio 70% or more, less than 90%)
g (rapeseed) effect on crop grade (rapeseed [42]): 4 (weed kill ratio 70% or more, less than 90%)
